Reference: patent publication US10654835B2, “Compounds and methods for inhibiting JAK” (Dizal (Jiangsu) Pharmaceutical Co., Ltd., priority 2015, dated 2020)
“Also recorded” adds a separate entry of the source.

Legend:
[1] = system: NCI-H1650 tumor xenografts; assay: H1650 xenograft model, antitumor activity (Example 71); type: in vivo, mice
Procedure: (§1) Tumor volume was measured twice a week.
(§2) Twenty-three days after cell implantation, the mice were randomized into 6 groups (9 mice/group, average tumor volume 257 mm^3, range 205-303 mm^3). […] Drug levels in plasma were measured by LC/MS, using a Linear Ion Trap Quadrupole LC/MS/MS Mass Spectrometer (QTRAP 5500 model 1024945-BB, AB Sciex Instruments), with separation on a Waters Xbridge C18 column.

[2] = system: NCI-H1975 tumor xenografts; assay: H1975 xenograft model, intermittent Example 32 dosing schedules, antitumor activity (Example 73); type: in vivo, mice
Procedure: as §1
Materials and Methods: NCI-H1975 cells (a human NSCLC cell line with L858R and T790M mutations in the EGFR gene), were implanted subcutaneously in female NCr nude mice (Taconic Laboratories), 3×10^6 cells/mouse.

[3] = system: PC-9 tumor xenografts; assay: PC-9 xenograft model, antitumor activity (Example 70); type: in vivo, mice
Procedure: as §1

[4] = system: pSTAT3 (Y705); assay: pSTAT3 knockdown in LG1049 tumors (Example 72); type: in vivo, mice; details: Example 32 25 mg/kg BID, 5 days of treatment, 4H after the final dose
Procedure: as §1

[5] = system: LG1049 non-small cell lung cancer PDX tumor xenografts; assay: LG1049 xenograft PDX model, antitumor activity (Example 72); type: in vivo, mice; details: for tumor regrowth when treatment was stopped after 28 days: osimertinib single agent or osimertinib + Example 32
Procedure: Summary: LG1049 non-small cell lung cancer PDX tumor xenografts were grown subcutaneously in female NSG mice. […] Tumor volume was measured twice a week.

[6] = system: NCI-H1975 tumor xenografts; assay: H1975 xenograft model, antitumor activity (Example 69); type: in vivo, mice
Procedure: as §1
Materials and Methods: NCI-H1975 cells (a human NSCLC cell line with L858R and T790M mutations in the EGFR gene) tumor cells were implanted subcutaneously in female NCr nude mice (Taconic Laboratories), 3×10^6 cells/mouse.

[7] = LG1049 xenograft PDX model, body weight (Example 72); type: in vivo, mice
Source text: Materials and Methods: LG1049 tumor fragments were implanted subcutaneously in female NSG mice (JAX Stock No. 005557). Once tumor volumes reached ˜125-275 mm^3, mice were randomized into 5 groups (10 mice/group, average tumor volume 189 mm^3, range 138-253 mm^3).

[8] = Drug levels in plasma, H1975 xenograft mice (Example 69); type: in vivo; details: increasing dose of Example 32, one day of treatment
Procedure: (§3) Materials and Methods: NCI-H1975 cells (a human NSCLC cell line with L858R and T790M mutations in the EGFR gene) tumor cells were implanted subcutaneously in female NCr nude mice (Taconic Laboratories), 3×10^6 cells/mouse. […] Drug levels in plasma were measured by LC/MS, using a Linear Ion Trap Quadrupole LC/MS/MS Mass Spectrometer (QTRAP 5500 model 1024945-BB, AB Sciex Instruments), with separation on a Waters Xbridge C18 column.

[9] = system: pSTAT3 (Y705); assay: pSTAT3 knockdown in PC-9 tumors (Example 70); type: in vivo, mice; details: gefitinib + Example 32 12.5 and 50 mg/kg BID; 2, 8 and 24 hours after the AM dose, last day
Procedure: as §1

[10] = system: pSTAT3; assay: pSTAT3 knockdown in NCI-H1650 tumors (Example 71); type: in vivo, mice; details: Example 32 as single agent and in combination with gefitinib, after one day of treatment
Procedure: as §1, §2

[11] = system: pSTAT3 (Y705); assay: pSTAT3 knockdown in NCI-H1975 tumors (Example 69); type: in vivo, mice; details: Example 32 12.5, 25, 50 mg/kg BID, after one day of treatment
Procedure: as §1, §3

[12] = system: pEGFR; assay: pEGFR knockdown in LG1049 tumors (Example 72); type: in vivo, mice; details: osimertinib 25 mg/kg QD, 5 days of treatment, 4H after the final dose

## COc1nn(C)cc1Nc1nccc(-c2c[nH]c3c(NC(=O)[C@@H](C)N4CCN(C)CC4)cccc23)n1 [Example 32, (2R)-N-(3-{2-[(3-methoxy-1-methyl-1H-pyrazol-4-yl)amino]pyrimidin-4-yl}-1H-indol-7-yl)-2-(4-methylpiperazin-1-yl)propanamide]
[1]; Example 32 25 or 50 mg/kg BID oral, 21 days
  antitumor activity, single agent: only modest antitumor activity
[1]; gefitinib 6.25 mg/kg QD + Example 32 25 or 50 mg/kg BID, 21 days
  antitumor activity of combination with gefitinib compared to single agent gefitinib: enhanced the antitumor activity of gefitinib
[1]; gefitinib + Example 32 from 25 mg/kg to 50 mg/kg
  dose dependence of the enhancement of antitumor activity: increased with increasing dose of Example 32
[2]; Example 32 50 mg/kg BID oral, 19 days
  antitumor activity, single agent, relative to vehicle: no significant activity relative to vehicle control treatment
[2]; Example 32 50 mg/kg BID vs. 25 mg/kg BID with osimertinib
  dose dependence of the enhancement of antitumor activity: greater at the higher dose of Example 32
[2]; after 26 days of treatment
  statistical significance of the difference, combination vs. osimertinib alone: statistically significant after 26 days of treatment at all schedules of Example 32, with the exception of the groups in which Example 32 was dosed only for the first 7 days
[2]; osimertinib 2.5 mg/kg QD + Example 32
  enhancement of osimertinib activity by schedule intensity of Example 32 (rank order): daily>4 on/3 off>7 on/7 off>2 on/5 off>just first 7 days
[2]; osimertinib 2.5 mg/kg QD + Example 32, continuous and intermittent schedules
  antitumor activity of combination with osimertinib compared to osimertinib alone: enhanced the antitumor activity of osimertinib
[3]; gefitinib 6.25 mg/kg QD + Example 32, oral, 21 days
  antitumor activity of combination with gefitinib compared to gefitinib: enhanced the antitumor activity of gefitinib
[3]; gefitinib + 12.5 mg/kg Example 32 daily, and + 50 mg/kg Example 32 2 days on/5 days off
  activity of combination compared to single agent gefitinib: greater activity than single agent gefitinib, but did not quite achieve statistical significance
[3]; gefitinib + Example 32 from 12.5 mg/kg to 50 mg/kg
  dose dependence of the enhancement of antitumor activity: increased with increasing dose of Example 32
[4]
  knockdown of pSTAT3 in tumors: robust knockdown
[5]; Example 32 25 mg/kg BID alone 3 days on/4 days off/wk after the combination
  tumor regrowth when Example 32 treatment was continued after 28 days of combination: tumors also regrew, but more slowly
[5]; Example 32 25 mg/kg BID oral, 18 days
  antitumor activity, single agent Example 32, relative to vehicle: no significant antitumor activity; also recorded: no significant activity relative to vehicle control treatment
[5]; osimertinib 25 mg/kg QD + Example 32 25 mg/kg BID (7 days, then 3 days on/4 days off/wk), 28 days
  tumor regression, combination with osimertinib compared to osimertinib alone: enhanced the tumor regression induced by osimertinib
[5]
  tumor regrowth when treatment was stopped after 28 days: tumors rapidly regrew
[6]; Example 32 12.5, 25 or 50 mg/kg BID oral, 18 days
  antitumor activity, single agent, relative to vehicle: no significant antitumor activity; also recorded: only weak antitumor activity
[6]; osimertinib 2.5 mg/kg QD + Example 32 12.5 mg/kg up to 50 mg/kg
  dose dependence of the enhancement of antitumor activity: increased with increasing dose of Example 32
[6]; osimertinib 2.5 mg/kg QD + Example 32 12.5, 25 or 50 mg/kg BID oral, 18 days
  antitumor activity of combination with osimertinib compared to osimertinib alone: enhanced the antitumor activity of osimertinib
[7]; mouse, in vivo
  weight loss, single agent: significant weight loss
[8]
  level of Example 32 in plasma: increasing level of Example 32 in plasma
[9]
  pSTAT3 knockdown in tumors: dose dependent increase in the duration of pSTAT3 knockdown
[10]
  pSTAT3 knockdown in tumors: Knockdown of pSTAT3 was observed
[11]
  pSTAT3 knockdown in tumors: dose dependent increase in pSTAT3 knockdown

## C=CC(=O)Nc1cc(Nc2nccc(-c3cn(C)c4ccccc34)n2)c(OC)cc1N(C)CCN(C)C [osimertinib, reference compound]
[5]; osimertinib 25 mg/kg QD oral, 28 days
  antitumor activity, single agent osimertinib: tumor regression
[5]
  tumor regrowth when treatment was stopped after 28 days: tumors rapidly regrew
[12]
  knockdown of pEGFR in tumors: robust knockdown
[7]; LG1049 tumor bearing NSG mice, weight loss ascribed to tumor growth
  weight loss, single agent: lack of significant weight loss
